Source: patent US20160021873A1, “STEM CELL PRESERVATION MEDIUM, STEM CELL PRESERVATION METHOD, AND STEM CELL PRESERVATION SYSTEM” (KYOKUTO PHARMACEUTICAL INDUSTRIAL CO., LTD., priority 2012, published 2016)

Tested on: human iPS cells
Assay: survival rate on ROCK inhibitor (+) versus (-) cultivation after thawing
Assay type: cell-based
Conditions: 10 μM Y-27632 for two days then three days without; rapid thawing with warm culture medium; ROCK inhibitor (-) cultivation about 30%
Description: Cultivation and freezing in the stem cell preservation method were carried out by procedures similar to those of Embodiment 2. Regarding thawing, after a warm culture medium was used to conduct rapid thawing, difference of survival rate was measured depending on whether the ROCK inhibitor 10 μM Y-27632 was added or not. Where the inhibitor was added, in the presence of Y-27632, cultivation was performed for two days, thereafter, cultivation was performed additionally for three days in a culture medium free of Y-27632. On the other hand, where no inhibitor was added, cultivation was performed for five days in a normal culture medium. On both the cultivation, a survival rate was measured according to the method described in Embodiment 2.

## C[C@@H](N)[C@H]1CC[C@H](C(=O)Nc2ccncc2)CC1 [ROCK inhibitor, Y-27632]
  survival rate: about 120%
